Data reported in patent US11000529B2, “Human papilloma virus replication inhibitors” (Icosagen Cell Factory OÜ, priority 2015, dated 2021).
“Also recorded” adds a separate entry of the source.

Tests used:
HPV18E1E2 mutant genome = HPV18E1E2 mutant genome replicated by HPV11 E1 and E2 in U2OS cells; type: cell-based, HPV18; conditions: U2OS co-transfected with HPV18E1E2 mutant and HPV11 wt minicircle, 5 days
Excerpt: Besides oncoproteins E6 and E7, HPVs differ from replication proteins E1 and E2 as well. To determine if the compounds identified here inhibit the replication of HR but not LR or cutaneous HPVs through E1 or E2, HPV18E1E2 mutant genome (deficient in replication due to mutations in the ORFs of E1 and E2) was replicated by E1 and E2 proteins originating from HPV11. HPV18E1E2 mutant genome alone was used as control. U2OS cells were co-transfected with HPV18E1E2 mutant and HPV11 wt mini circle genome and the cells were grown in the presence of compound 305831 for 5 days, media was changed on the 3rd day. DMSO was added as vehicle control. Genomic DNA was extracted, HPV DNA was digested with AgeI, SdaI and DpnI. HPV replication was detected by Southern Blot analyses. Results on FIG. 7 show, that HPV18E1E2 mutant genome is indeed replication-deficient when transfected alone (lane 7). […] The activity of LR-HPV E1 and E2 proteins or their interactome seem to be different compared to HR-HPV replication proteins.

HPV18 [1] = test: HPV18 initial amplification replication assay in U2OS cells (Southern Blot); type: cell-based
Excerpt: FIG. 2 Effect of the identified five compounds on HPV18 initial amplification. A: U2OS cells were transfected with HPV18 wt minicircle and grown in the presence of the compounds with indicated concentrations for 5 days. Genomic DNA was extracted, linearized, and digested with DpnI. HPV genome replication signals were detected using Southern Blot analyses and quantified with phosphoimager and expressed relative to vehicle control (DMSO). Approximate IC50 values are shown for each compound. Error-bars represent standard deviation from at least three independent experiment. B: U2OS cells were transfected with the expression vectors of HPV18 E1 and E2 proteins together with HPV18 URR (origin) minicircle plasmid. The cells were grown in the presence of the compounds with indicated concentrations for 24 or 48 hours. Genomic DNA was extracted, linearized and digested with DpnI. HPV URR replication signals were detected by Southern Blot analyses. DMSO serves as vehicle control and M 18URR serves as size marker.
(§1) Replication assay. The U2OS or U2OS-EBNA1 cells were transfected with 2 ug of HPV18 minicircle genome and lug of oriP plasmid (only in case of U2OS-EBNA1 cells). All the compounds were added to the media immediately after the transfection and media was changed on the third day. Replication signals were detected with Southern Blot method. Briefly, genomic DNA was extracted 3 and 4 days after the transfection with sh_RNAs or with the use of ABT-888 and 5 days after for analyses of the effects of HPV inhibitors w/wo CPT. DNA was digested with BglI and DpnI for analyses of HPV18 replication and with BstXI, ScaI and DpnI for analyses of HPV18 and oriP replication simultaneously. 3 ug of DNA was resolved in agarose gel, transferred to a nylon membrane (Membrane Solutions LLC) and hybridized with specific radioactively labeled probes. Signals were detected and quantified with Typhoon Trio+ phosphoimager (GE Healthcare) and exposed on an X-ray film (AGFA).
for compounds inhibiting initial amplification of HPV18 genome in U2OS cells. HT-screening was conducted with all the compounds in this library in 5 uM and 1 uM concentrations and it gave us 80 hits (approximately 5% of analyzed compounds). After validation of the hits on HPV18 wt genome, we found five compounds inhibiting initial amplification of HPV18 in U2OS cells (FIG. 1). To further characterize the compounds, we performed replication assay described in Example 1.

HPV18 [2] = test: HPV18 replication in U2OS-EBNA1 cells, compounds alone or with CPT; type: cell-based; conditions: U2OS-EBNA1, with 2 nM CPT, 5 days
Procedure: FIG. 5 Synergistic effect between Camptothecin (CPT) and the identified five compounds. U2OS-EBNA1 cells were transfected with HPV18 wt and oriP plasmids and grown in the presence of indicated concentrations of the compounds alone or together with 2 nM CPT for 5 days. Genomic DNA was extracted, linearized and digested with DpnI. Both HPV18 and oriP replication signals were detected with Southern Blot and quantified by phosphoimager. […] Error-bars represent standard deviations from at least three independent experiments.
as §1
Synergistic effect of Campthotecin (CPT) and HPV18 replication inhibitors. CPT is a Topoisomerase I inhibitor that stabilizes entrapped Top1cc complexes to DNA. Since Tdp1 is responsible for cleaving entrapped Top1cc complexes from DNA, synergistic effect between CPT and Tdp1 inhibitors occurs. In the experiments shown in FIG. 5 we used U2OS cells constitutively expressing Epstein Barr virus (EBV) EBNA1 protein—U2OS-EBNA1. These cells allow to monitor HPV and EBNA1 supported oriP plasmid replication simultaneously. […] U2OS-EBNA1 cells were cotransfected with HPV18 genome and oriP plasmid and the cells were grown in the presence of various concentrations of the identified HPV inhibitors alone or together with 2 nM of CPT for 5 days, DMSO was used as vehicle control.

HPV18 [3] = test: Stable maintenance of HPV18 in U2OS #1.13 cells, subconfluent; type: cell-based; conditions: U2OS #1.13, subconfluent, 7 days
Procedure: (§2) FIG. 3 Effect of compounds on stable maintenance and vegetative amplification of HPV18. A: U2OS #1.13 cells were grown in subconfluent conditions in the presence of the identified five compounds for 7 days. Genomic DNA was extracted, linearized and HPV replication signal was detected by Southern Blot and B: quantified by phosphoimager. C: U2OS #1.13 were seeded and grown for 5 days without splitting. On the 5th day indicated concentrations of compounds were added to the media and the cells were grown for additional 7 days without splitting. On the 12th day genomic DNA was extracted, linearized and HPV replication signal was detected by Southern Blot and D: quantified by phosphoimager. Error-bars represent standard deviations from at least two independent experiments.
Our U2OScell-based system is suitable for studying all three replication stages of various HPV subtypes. Stable maintenance phase could be monitored by maintaining HPV-positive cells in subconfluent conditions. We used HPV18 positive monoclonal U2OS cell-line #1.13 with viral copy number ˜2000. We grew the #1.13 cells in the presence of various concentration of compounds in subconfluent conditions (cells were split every three days) for 7 days. HPV18 replication signal was detected by Southern blot analyses and quantified with phosphoimager. About 50% of the signal was lost in case of compound 82269 compared to the DMSO control (FIG. 3, panel A, compare lanes 4-6 with lane 15 and panel B).

Tdp = Tdp (Homo sapiens, UniProt Q9NUW8); conditions: known from the literature; cited from earlier work
HPV18 [4] = test: Vegetative amplification of HPV18 in U2OS #1.13 cells, confluent; type: cell-based; conditions: U2OS #1.13, confluent, compounds added on 5th day for additional 7 days
Procedure: as §2
If #1.13 is grown in confluent conditions for at least 5 days, vegetative amplification of HPV genome is turned on. We seeded equal amounts of cells onto plates and grew them for 5 days without splitting. On the 5th day various concentrations of compound were added and the cells were grown for additional 7 days (media was changed every two days throughout the experiment). HPV replication signal was detected by Southern Blot analyses and quantified with phosphoimager.

Sequence of Tdp (Q9NUW8 whole entry): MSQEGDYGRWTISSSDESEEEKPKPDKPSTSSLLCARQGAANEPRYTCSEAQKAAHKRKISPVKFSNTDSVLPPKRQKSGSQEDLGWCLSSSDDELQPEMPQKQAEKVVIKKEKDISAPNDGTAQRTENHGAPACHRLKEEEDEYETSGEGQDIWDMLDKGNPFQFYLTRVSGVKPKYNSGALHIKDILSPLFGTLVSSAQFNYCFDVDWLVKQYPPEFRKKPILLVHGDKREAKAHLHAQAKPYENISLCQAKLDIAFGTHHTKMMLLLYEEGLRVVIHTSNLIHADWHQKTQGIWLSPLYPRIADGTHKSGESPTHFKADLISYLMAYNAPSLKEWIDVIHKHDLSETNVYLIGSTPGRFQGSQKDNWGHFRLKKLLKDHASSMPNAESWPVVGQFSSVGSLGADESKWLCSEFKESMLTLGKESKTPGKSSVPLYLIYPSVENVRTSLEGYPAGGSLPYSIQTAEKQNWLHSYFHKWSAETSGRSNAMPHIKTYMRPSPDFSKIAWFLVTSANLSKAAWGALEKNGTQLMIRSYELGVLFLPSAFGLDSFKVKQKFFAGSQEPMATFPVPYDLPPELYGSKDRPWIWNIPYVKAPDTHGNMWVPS

## [H]/N=C(\N)c1ccc(-c2ccc(-c3ccc(C(=N)N)cc3)o2)cc1 [NSC 305831]
HPV18E1E2 mutant genome
  HPV18 replication carried out by E1 and E2 proteins originating from HPV11: no inhibition of HPV18 replication
HPV18 [1]; 120 h, read-out: IC50 of HPV18 initial amplification
  IC50: 2.5 to 60 µM
HPV18 [1]; HPV18 wt minicircle, 5 days, Southern Blot, relative to DMSO
  inhibition of HPV18 initial amplification: concentration-dependent inhibition
HPV18 [2]
  synergistic effect together with CPT on HPV18 replication: clear concentration dependent synergistic effect; also recorded: clear synergistic inhibition
HPV18 [3]
  effect on stable maintenance of HPV18: clearly inhibit
HPV18 [3]; compared to DMSO control
  HPV18 replication signal lost: about 70%
Tdp
  Tdp inhibition: known to inhibit Tdp
HPV18 [4]
  effect on vegetative amplification of HPV18: almost completely abolished amplification; also recorded: clearly inhibit
